Reference: the supplement of paper PMC11061612

Experiments:
[1] = system: CTV-1 (T-Lymphoblastic Leukemia); test: Bliss excess, mean over the matrix (fraction); higher = more synergy
In short: (§1)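 Cell lines grown in DMEM/F12 or RPMI with 10% FBS were plated in 1536-well plates and held 24 hours at 37°C, 5% CO2 before 72 hours of exposure to two-drug dose matrices, with DMSO typically at 0.2%. CellTiter-Glo 2.0 luminescence gave viability, which was converted to inhibition. Vehicle wells were set to 0 and blank wells to 1. Combination Emax is the second-highest inhibition in the matrix, and Bliss excess is the observed combination effect minus the expected EA + EB − EA·EB, where EA and EB are the single-agent effects.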

[2] = system: G-292-Clone-A141B1 (Osteosarcoma); test: as above
In short: as §1

[3] = system: KARPAS-1106P (B-Cell Non-Hodgkin's Lymphoma); test: as above
In short: as §1

[4] = system: KATOIII (Gastric Carcinoma); test: as above
In short: as §1

[5] = system: KM-H2 (Hodgkin's Lymphoma); test: as above
In short: as §1

[6] = system: NCI-H1694 (Small Cell Lung Carcinoma); test: as above
In short: as §1

[7] = system: NCI-H2595 (Mesothelioma); test: as above
In short: as §1

[8] = system: RH-1 (Ewing's Sarcoma); test: as above
In short: as §1

[9] = system: SUIT-2 (Pancreatic Carcinoma); test: as above
In short: as §1

[10] = system: SW1990 (Pancreatic Carcinoma); test: as above
In short: as §1

[11] = system: TGBC24TKB (Biliary Tract Carcinoma); test: as above
In short: as §1

[12] = system: CTV-1 (T-Lymphoblastic Leukemia); test: combination Emax (second highest fraction inhibited in the dose matrix, 72 h); higher = more inhibition; extreme values may be limits of the assay
In short: as §1

[13] = system: DMS-273 (Small Cell Lung Carcinoma); test: as above
In short: as §1

[14] = system: G-292-Clone-A141B1 (Osteosarcoma); test: as above
In short: as §1

[15] = system: HCC2157 (Breast Carcinoma); test: as above
In short: as §1

[16] = system: IGR-1 (Melanoma); test: as above
In short: as §1

[17] = system: KARPAS-1106P (B-Cell Non-Hodgkin's Lymphoma); test: as above
In short: as §1

[18] = system: NALM-6 (B-Lymphoblastic Leukemia); test: as above
In short: as §1

[19] = system: NCI-H2595 (Mesothelioma); test: as above
In short: as §1

[20] = system: SW1088 (Low Grade Glioma); test: as above
In short: as §1
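Wherever Bliss excess, mean over the matrix is given: after 72 h of two-drug dosing.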

Compound	Bliss excess [1]	Bliss excess [2]	Bliss excess [3]	Bliss excess [4]	Bliss excess [5]	Bliss excess [6]	Bliss excess [7]	Bliss excess [8]	Bliss excess [9]	Bliss excess [10]	Bliss excess [11]	combination Emax [12]	combination Emax [13]	combination Emax [14]	combination Emax [15]	combination Emax [16]	combination Emax [17]	combination Emax [18]	combination Emax [19]	combination Emax [20]
CS(=O)(=O)CCNCc1ccc(-c2ccc3ncnc(Nc4ccc(OCc5cccc(F)c5)c(Cl)c4)c3c2)o1 [Lapatinib] + C[C@@H](Oc1cc(-c2cnn(C3CCNCC3)c2)cnc1N)c1c(Cl)ccc(F)c1Cl [Crizotinib] (first compound max 10 µM, 7x7, partner max 10 µM)	0.036	-0.0506	-0.0483	0.0169	0.0018	0.025	-0.0198	-0.0553	0.0051	-0.0042	-0.0058	1	0.954	0.71	1	0.987	0.938	0.959	0.458	0.654
COc1cccc(OCCCN)c1-c1cc(Nc2cnc(C#N)cn2)n[nH]1 [Prexasertib] + CCc1c2c(nc3ccc(O)cc13)-c1cc3c(c(=O)n1C2)COC(=O)[C@]3(O)CC [SN-38] (first compound max 1 µM, 7x7, partner max 0.3 µM)	-0.0461	0.0081	-0.124	-0.0168	-0.0411	0.0037	0.0211	-0.0177	-0.0582	-0.0551	0.0191	0.999	0.997	0.34	1	0.893	0.897	0.983	0.426	0.849
Cc1c2c(nn1C)CSCc1cc(n(C)n1)CSc1cc(c3ccccc3c1)OCCCc1c(C(=O)O)n(C)c3c-2c(Cl)ccc13 [AZD5991] + C=CCn1c(=O)c2cnc(Nc3ccc(N4CCN(C)CC4)cc3)nc2n1-c1cccc(C(C)(C)O)n1 [AZD1775] (first compound max 1 µM, partner max 1 µM)	0.0316	-0.0178	-0.011	-0.029	-0.0181	-0.0247	-0.0127	-0.0575	0.0014	-0.024	-0.0375	0.925	0.987	0.262	0.979	0.63	0.997	0.878	0.282	0.352
Cn1cnc2c(F)c(Nc3ccc(Br)cc3Cl)c(C(=O)NOCCO)cc21 [Selumetinib] + C=CCn1c(=O)c2cnc(Nc3ccc(N4CCN(C)CC4)cc3)nc2n1-c1cccc(C(C)(C)O)n1 [AZD1775] (first compound max 10 µM, partner max 1 µM)	0.0039	-0.0458	-0.0358	0.0186	-0.0685	-0.067	-0.0443	-0.0491	-0.0417	0.0134	-0.0027	0.963	0.739	0.102	0.729	0.578	0.782	0.98	0.18	0.55
Cc1cc2ncnn2cc1Nc1ncc2c(n1)n(C1CCOCC1)c(=O)n2C [AZD7648] + C=CCn1c(=O)c2cnc(Nc3ccc(N4CCN(C)CC4)cc3)nc2n1-c1cccc(C(C)(C)O)n1 [AZD1775] (first compound max 10 µM, partner max 1 µM)	0.0096	-0.0124	-0.0202	-0.0052	-0.0201	-0.0234	-0.0242	0.016	-0.0403	-0.0255	0.0098	0.97	0.611	0.295	0.899	0.25	0.901	0.898	0.244	0.504
CC(=O)c1c(C)c2cnc(Nc3ccc(N4CCNCC4)cn3)nc2n(C2CCCC2)c1=O [Palbociclib] + CC1(C)CCC(CN2CCN(c3ccc(C(=O)NS(=O)(=O)c4ccc(NCC5CCOCC5)c([N+](=O)[O-])c4)c(Oc4cnc5[nH]ccc5c4)c3)CC2)=C(c2ccc(Cl)cc2)C1 [Venetoclax] (first compound max 10 µM, 7x7, partner max 1 µM)	0.0415	-0.0368	-0.0424	-0.0606	-0.0011	0	-0.0557	0.0175	-0.0454	-0.0239	-0.0121	0.921	0.351	0.0906	0.601	0.764	0.599	0.933	0.104	0.429
Cn1cnc2c(F)c(Nc3ccc(Br)cc3Cl)c(C(=O)NOCCO)cc21 [Selumetinib] + CC(C)n1c(=O)n(C)c2cnc3cc(F)c(-c4ccc(OCCCN5CCCCC5)nc4)cc3c21 [AZD1390] (first compound max 10 µM, 7x7, partner max 0.3 µM)	0.0032	-0.0567	-0.0376	0.011	-0.027	-0.0085	-0.0415	-0.0497	-0.0294	-0.0434	-0.109	0.331	0.232	0.0339	0.238	0.296	0.0708	0.205	0.191	0.14
